Measurements published in US20070105721A1, “Vinylogous 4-Hpyrones and their use in promoting plant growth” (priority 2003, published 2007).

Key:
[1] = tested on: Podolepis canescens seeds; test: Compound 1a as a replacement for light or gibberellic acid; type: in vivo; conditions: 1, 10 or 100 ppb compound 1a; similar to gibberellic acid
Method: Three replicates of 50 seeds of Podolepis canescens were placed on Petri dishes containing filter paper moistened with de-ionised water (control), 1, 10 or 100 ppb compound 1a or 1000 ppm gibberellic acid. The Petri dishes were incubated at 12/12 hr alternating temperatures of 7/18° C., 13/26° C. or 18/33° C. and incubated in white light or continuous darkness. All of the treatments were added to the Petri dishes in complete darkness prior to moving to the incubators. Germination was recorded following 7 days incubation.

[2] = tested on: Grand Rapids Lettuce seeds (Waltham strain); test: Grand Rapids bioassay; type: in vivo
Method: Grand Rapids Lettuce seeds (Waltham strain) were obtained from R.B. Dessert Seed Co. and were frozen in sachets until use. For testing of aqueous samples, 2.5 mL of test solution was applied to three replicates of 40-50 seeds in Petri dishes (90 mm) lined with two layers of Whatman No. 1 filter paper (7 cm). Millipore filtered water (MP water) was used as a control for each experiment and dilutions of each sample were used to ensure the optimum concentration range for activity. Fractions were reconstituted to their original concentration (before fractionation) and dilutions were made using MP water. Petri dishes were sealed with a layer of plastic wrap, and stored in a light proof container. All manipulations involving the seed were carried out in a dark room and germinants, based on the appearance of a radicle, were scored after 48 hours incubation.

In the case of `Cc1c2ccocc-2oc1=O` [Compound 1a, 3-Methyl-2H-furo[2,3-c]pyran-2-one], the “germination in the dark of light-requiring Podolepis canescens” value [1] is reported as “stimulates germination in the dark”, the “Grand Rapids germination” value ([2]; 1/1 000 000 dilution of compound 1a 1 mg/L) is reported as 60.9 (2.5) % and the “Grand Rapids germination” value ([2]; 1/10 000 dilution (of neat SW; of compound 1a 1 mg/L)) is reported as 96.4 (0.6) %. The “Grand Rapids germination” value ([2]; 1/10 dilution (of neat SW; of compound 1a 1 mg/L)) was 98.4 (0.9) %, the “Grand Rapids germination” value ([2]; 1/100 000 dilution of compound 1a 1 mg/L) was 76.9 (1.5) % and the “Grand Rapids germination” value ([2]; 1/100 dilution (of neat SW; of compound 1a 1 mg/L)) was 98.4 (1.6) %. The “level at which compound 1a is active in promoting germination” value ([2]; 1/100 dilution of the estimated content of neat smoke water (1 mg per 10 000 L)) was 10^−10 mol/L, the “Grand Rapids germination” value ([2]; 1/1000 dilution (of neat SW; of compound 1a 1 mg/L)) was 97.0 (0.5) % and the “Grand Rapids germination” value ([2]; Neat (neat SW; compound 1a 1 mg/L), mean (SEM)) was 99.4 (0.6) %. For the same compound, the inhibition of germination ([2]; at higher concentrations of 1a compared to the amount in smoke water) was “no inhibition of germination is observed” and the “Germination, Grand Rapids” value ([2]; compounds isolated from smoke, mean (SEM)) was 99.3 (0.7) %.
